In paper PMC7758046, “Novel piperazine–chalcone hybrids and related pyrazoline analogues targeting VEGFR-2 kinase; design, synthesis, molecular docking studies, and anticancer evaluation” (Journal of Enzyme Inhibition and Medicinal Chemistry, 2020):

Tests used:
Assay in all cases: NCI-60 single-dose anticancer screen
Type in all cases: cell-based, human
786-0 (Renal cancer) = conditions: 10 µM single dose
Method: (§1) Six compounds were selected by the NCI, according to NCI’s DTP selection guidelines, for evaluation of their anticancer activity at a single-dose of 10 µM against 60 human tumours cell lines.
(§2) In vitro cytotoxicity was performed in NCI according to reported method.

UO-31 (Renal cancer) = conditions: 10 µM single dose
Method: as §1, §2

IGROV1 (Ovarian cancer) = conditions: 10 µM single dose
Method: as §1, §2

[1] = system: MDA-MB-231/ATCC (Breast cancer); conditions: 10 µM single dose
Method: as §1, §2

[2] = system: HOP-92 (Non-small cell lung cancer); conditions: 10 µM single dose; for inhibition at 10 µM: Homo sapiens, read-out: cell growth inhibition
Method: as §1, §2

[3] = system: NCI/ADR-RES (Ovarian cancer); conditions: 10 µM single dose
Method: as §1, §2

MALME-3M (Melanoma) = conditions: 10 µM single dose
Method: as §1, §2

DU-145 (Prostate cancer) = conditions: 10 µM single dose
Method: as §1, §2

OVCAR-5 (Ovarian cancer) = conditions: 10 µM single dose
Method: as §1, §2

SK-MEL-5 (Melanoma) = conditions: 10 µM single dose
Method: as §1, §2

OVCAR-3 (Ovarian cancer) = conditions: 10 µM single dose
Method: as §1, §2

SF-539 (CNS cancer) = conditions: 10 µM single dose
Method: as §1, §2

[4] = system: MDA-MB-468 (Breast cancer); conditions: 10 µM single dose
Method: as §1, §2

BT-549 (Breast cancer) = conditions: 10 µM single dose
Method: as §1, §2

SF-268 (CNS cancer) = conditions: 10 µM single dose
Method: as §1, §2

SK-OV-3 (Ovarian cancer) = conditions: 10 µM single dose
Method: as §1, §2

[5] = system: A549/ATCC (Non-small cell lung cancer); conditions: 10 µM single dose
Method: as §1, §2

HT29 (Colon cancer) = conditions: for cell growth promotion: 10 µM single dose; for inhibition at 10 µM: Homo sapiens, HT-29, 10 µM single dose, read-out: cell growth inhibition
Method: as §1, §2

KM12 (Colon cancer) = conditions: 10 µM single dose
Method: as §1, §2

MCF7 (Breast cancer) = conditions: 10 µM single dose
Method: as §1, §2

A498 (Renal cancer) = conditions: 10 µM single dose
Method: as §1, §2

[6] = system: NCI-H522 (Non-small cell lung cancer); conditions: 10 µM single dose
Method: as §1, §2

[7] = system: NCI-H23 (Non-small cell lung cancer); conditions: 10 µM single dose
Method: as §1, §2

CCRF-CEM (Leukaemia) = conditions: 10 µM single dose
Method: as §1, §2

SR (Leukaemia) = conditions: 10 µM single dose
Method: as §1, §2

SNB-75 (CNS cancer) = conditions: 10 µM single dose
Method: as §1, §2

T-47D (Breast cancer) = conditions: 10 µM single dose
Method: as §1, §2

[8] = system: EKVX (Non-small cell lung cancer); conditions: 10 µM single dose
Method: as §1, §2

OVCAR-4 (Ovarian cancer) = conditions: 10 µM single dose
Method: as §1, §2

HL-60(TB) (Leukaemia) = conditions: 10 µM single dose
Method: as §1, §2

[9] = system: NCI-H226 (Non-small cell lung cancer); conditions: 10 µM single dose
Method: as §1, §2

UACC-62 (Melanoma) = conditions: 10 µM single dose
Method: as §1, §2

SK-MEL-2 (Melanoma) = conditions: 10 µM single dose
Method: as §1, §2

[10] = system: NCI-H460 (Non-small cell lung cancer); conditions: 10 µM single dose
Method: as §1, §2

HS 578T (Breast cancer) = conditions: 10 µM single dose
Method: as §1, §2

OVCAR-8 (Ovarian cancer) = conditions: 10 µM single dose
Method: as §1, §2

PC-3 (Prostate cancer) = conditions: 10 µM single dose
Method: as §1, §2

COLO 205 (Colon cancer) = conditions: 10 µM single dose
Method: as §1, §2

CAKI-1 (Renal cancer) = conditions: 10 µM single dose
Method: as §1, §2

M14 (Melanoma) = conditions: 10 µM single dose
Method: as §1, §2

U251 (CNS cancer) = conditions: 10 µM single dose
Method: as §1, §2

RPMI-8226 (Leukaemia) = conditions: 10 µM single dose
Method: as §1, §2

[11] = system: NCI-H322M (Non-small cell lung cancer); conditions: 10 µM single dose
Method: as §1, §2

SF-295 (CNS cancer) = conditions: 10 µM single dose
Method: as §1, §2

TK-10 (Renal cancer) = conditions: 10 µM single dose
Method: as §1, §2

SW-620 (Colon cancer) = conditions: 10 µM single dose
Method: as §1, §2

RXF 393 (Renal cancer) = conditions: 10 µM single dose
Method: as §1, §2

[12] = Homo sapiens, read-out: cell growth inhibition

Structure (SMILES): O=C(C=Cc1ccncc1F)c1ccc(N2CCNCC2)cc1 [Vf, 3-(3-Fluoropyridin-4-yl)-1-(4-(piperazin-1-yl)phenyl)prop-2-en-1-one]
- cell growth promotion (786-0 (Renal cancer)): 103.38%
- cell growth promotion (UO-31 (Renal cancer)): 89.78%
- cell growth promotion (IGROV1 (Ovarian cancer)): 97.17%
- cell growth promotion [1]: 98.76%
- cell growth promotion [2]: 82.34%
- inhibition at 10 µM [2]: 17.7%
- cell growth promotion [3]: 107.53%
- cell growth promotion (MALME-3M (Melanoma)): 99.98%
- cell growth promotion (DU-145 (Prostate cancer)): 108.14%
- cell growth promotion (OVCAR-5 (Ovarian cancer)): 111.84%
- cell growth promotion (SK-MEL-5 (Melanoma)): 101.11%
- cell growth promotion (OVCAR-3 (Ovarian cancer)): 106.22%
- cell growth promotion (SF-539 (CNS cancer)): 101.29%
- cell growth promotion [4]: 100.32%
- cell growth promotion (BT-549 (Breast cancer)): 90.81%
- cell growth promotion (SF-268 (CNS cancer)): 100.92%
- cell growth promotion (SK-OV-3 (Ovarian cancer)): 96.68%
- cell growth promotion [5]: 78.75%
- cell growth promotion (HT29 (Colon cancer)): 86.42%
- inhibition at 10 µM (HT29 (Colon cancer)): 13.8%
- cell growth promotion (KM12 (Colon cancer)): 105.34%
- cell growth promotion (MCF7 (Breast cancer)): 99.38%
- inhibition at 10 µM (MCF7 (Breast cancer); [12]): 0.62%
- cell growth promotion (A498 (Renal cancer)): 97.22%
- cell growth promotion [6]: 78.82%
- cell growth promotion [7]: 102.52%
- cell growth promotion (CCRF-CEM (Leukaemia)): 78.16%
- inhibition at 10 µM (CCRF-CEM (Leukaemia); [12]): 21.8%
- cell growth promotion (SR (Leukaemia)): 92.99%
- inhibition at 10 µM (SR (Leukaemia); [12]): 7.01%
- cell growth promotion (SNB-75 (CNS cancer)): 89.08%
- cell growth promotion (T-47D (Breast cancer)): 118.12%
- cell growth promotion [8]: 99.11%
- cell growth promotion (OVCAR-4 (Ovarian cancer)): 110.55%
- cell growth promotion (HL-60(TB) (Leukaemia)): 79.28%
- inhibition at 10 µM (HL-60(TB) (Leukaemia); [12]): 20.7%
- cell growth promotion [9]: 99.71%
- cell growth promotion (UACC-62 (Melanoma)): 92.01%
- cell growth promotion (SK-MEL-2 (Melanoma)): 91.63%
- cell growth promotion [10]: 106.01%
- cell growth promotion (HS 578T (Breast cancer)): 99.19%
- cell growth promotion (OVCAR-8 (Ovarian cancer)): 95.35%
- cell growth promotion (PC-3 (Prostate cancer)): 73.56%
- cell growth promotion (COLO 205 (Colon cancer)): 111.89%
- cell growth promotion (CAKI-1 (Renal cancer)): 86.18%
- cell growth promotion (M14 (Melanoma)): 95.53%
- cell growth promotion (U251 (CNS cancer)): 95.03%
- cell growth promotion (RPMI-8226 (Leukaemia)): 97.33%
- cell growth promotion [11]: 96.26%
- cell growth promotion (SF-295 (CNS cancer)): 101.95%
- cell growth promotion (TK-10 (Renal cancer)): 95.83%
- cell growth promotion (SW-620 (Colon cancer)): 105.59%
- cell growth promotion (RXF 393 (Renal cancer)): 97.78%

Structure (SMILES): COc1cc(C2CC(c3ccc(N4CCNCC4)cc3)=NN2)ccc1F (stereo not drawn) [VIb, 1-(4-(5-(4-Fluoro-3-methoxyphenyl)-4,5-dihydro-1H-pyrazol-3-yl)phenyl) piperazine]
- cell growth promotion (786-0 (Renal cancer)): 94.50%
- cell growth promotion (UO-31 (Renal cancer)): 76.56%
- cell growth promotion (IGROV1 (Ovarian cancer)): 82.04%
- cell growth promotion [1]: 81.98%
- cell growth promotion [2]: 57.13%
- inhibition at 10 µM [2]: 42.9%
- cell growth promotion [3]: 104.69%
- cell growth promotion (MALME-3M (Melanoma)): 102.13%
- cell growth promotion (DU-145 (Prostate cancer)): 103.62%
- cell growth promotion (OVCAR-5 (Ovarian cancer)): 101.51%
- cell growth promotion (SK-MEL-5 (Melanoma)): 80.94%
- cell growth promotion (OVCAR-3 (Ovarian cancer)): 91.15%
- cell growth promotion (SF-539 (CNS cancer)): 84.21%
- cell growth promotion [4]: 96.57%
- cell growth promotion (BT-549 (Breast cancer)): 70.80%
- cell growth promotion (SF-268 (CNS cancer)): 93.72%
- cell growth promotion (SK-OV-3 (Ovarian cancer)): 83.58%
- cell growth promotion [5]: 68.21%
- cell growth promotion (HT29 (Colon cancer)): 20.27%
- inhibition at 10 µM (HT29 (Colon cancer)): 79.7%
- cell growth promotion (KM12 (Colon cancer)): 93.81%
- cell growth promotion (MCF7 (Breast cancer)): 68.65%
- cell growth promotion (A498 (Renal cancer)): 90.59%
- cell growth promotion [6]: 66.27%
- cell growth promotion [7]: 75.49%
- cell growth promotion (CCRF-CEM (Leukaemia)): 69.44%
- cell growth promotion (SR (Leukaemia)): 67.42%
- cell growth promotion (SNB-75 (CNS cancer)): 88.85%
- cell growth promotion (T-47D (Breast cancer)): 73.62%
- cell growth promotion [8]: 95.41%
- cell growth promotion (OVCAR-4 (Ovarian cancer)): 91.49%
- cell growth promotion (HL-60(TB) (Leukaemia)): 76.95%
- cell growth promotion [9]: 89.08%
- cell growth promotion (UACC-62 (Melanoma)): 86.00%
- cell growth promotion (SK-MEL-2 (Melanoma)): 87.70%
- cell growth promotion [10]: 95.16%
- cell growth promotion (HS 578T (Breast cancer)): 84.17%
- cell growth promotion (OVCAR-8 (Ovarian cancer)): 84.09%
- cell growth promotion (PC-3 (Prostate cancer)): 64.23%
- cell growth promotion (COLO 205 (Colon cancer)): 93.87%
- cell growth promotion (CAKI-1 (Renal cancer)): 86.62%
- cell growth promotion (M14 (Melanoma)): 84.68%
- cell growth promotion (U251 (CNS cancer)): 78.59%
- cell growth promotion (RPMI-8226 (Leukaemia)): 72.01%
- cell growth promotion [11]: 89.15%
- cell growth promotion (SF-295 (CNS cancer)): 97.70%
- cell growth promotion (TK-10 (Renal cancer)): 113.60%
- cell growth promotion (SW-620 (Colon cancer)): 91.67%
- cell growth promotion (RXF 393 (Renal cancer)): 95.32%
